Test results taken from a melting point compilation (Tetko et al.; mined from patent text by program, amines drawn as free bases though some values may be those of a salt).

Which melting point does the source give for `CCNc1nc(NCCN2CCCC2)nc(Nc2ccc(OC)cc2)n1` here?
Its melting point is 29 to 31 °C.

For `COc1ccc(CNc2c(C)c(C)c3c(c2C)C(c2ccc(C)cc2)C(C)(C)O3)cc1` (stereo not given), which melting point is on record?
The melting point was 97 to 98 °C.

Which melting point does the source give for `Cc1cccc(C)c1CNc1cc(C(N)=O)cc2c1nc(C)n2C` here?
Its melting point is 272 °C.

With `CCCCN(CCCC)CCCCC(=O)c1ccc2c(c1)Cc1cc(C(=O)CCCCN(CCCC)CCCC)ccc1-2` as the compound, how does the melting point read?
Its melting point is 48 to 50 °C.

With `Nc1ccc2c(c1)C(=O)CC21CCCC1` as the compound, how does the melting point read?
Its melting point is 125 °C.

For `O=C(NCCCCCC1CCSS1)c1cccnc1` (stereo not given), which melting point is on record?
The melting point was 41 to 44 °C.

For `COC(=O)c1c(C)[nH]c(-c2ncccn2)c1C(=O)OC`, which melting point is on record?
Its melting point is 140 to 146 °C.

With `CN1C(=O)Cn2c(nn(-c3ccccc3)c2=O)-c2cc(Cl)ccc21` as the compound, how does the melting point read?
The melting point was 174 to 175 °C.

With `OC1(c2ccccc2Cc2cc(F)ccc2F)CCN(Cc2ccccc2)CC1` as the compound, how does the melting point read?
The melting point was 143 to 146 °C.

For `Nc1sc2c(c1C(=O)c1ccco1)CCC2`, which melting point is on record?
Its melting point is 149 to 153 °C.

With `COc1ccccc1OCC1SCCN1C(=O)CBr` (stereo not given) as the compound, how does the melting point read?
Its melting point is 82 to 84 °C.

With `CCOc1cc2c(cc1O)C(C(Cl)(Cl)Cl)OC2=O` (stereo not given) as the compound, how does the melting point read?
The melting point was 143 to 144 °C.

For `CNC(=O)[C@@H]1C[C@H](OC)CN1S(=O)(=O)c1ccc(Cl)c(COc2cccc3c(-n4ccnc4)cc(C)nc23)c1Cl`, which melting point is on record?
The melting point was 64 °C.

For `c1ccc2c(c1)C[C@H]1CSC(=Nc3cccc4ccncc34)N1C2`, which melting point is on record?
Its melting point is 206 °C.

Which melting point does the source give for `CCOc1ccc(C2=NN(C3CCN(C(=O)N4CCOCC4)CC3)C(=O)[C@@H]3CC=CC[C@H]23)cc1OCC` here?
Its melting point is 139 to 141 °C.

For `COC(=O)CS(=O)(=O)CCCCN(c1cnc(-c2ccccc2)c(-c2ccccc2)n1)C(C)C`, which melting point is on record?
Its melting point is 123 to 125 °C.

Which melting point does the source give for `COc1ccc(NC(=O)C(C)(C)c2ccc(S(=O)(=O)/C=C/C#N)cc2)cc1` here?
Its melting point is 123 to 126 °C.

With `COC(=O)c1ccc(Cn2cnc3c(Cl)nc(N)nc32)cc1` as the compound, how does the melting point read?
The melting point was 150 to 155 °C.

Which melting point does the source give for `Cc1nnsc1C(=O)Nc1ccc(-n2nc(C(F)(F)F)cc2C2CC2)cc1` here?
The melting point was 84 to 89 °C.

With `c1cnc2ccc(Cn3nnc4ccc(-c5ccc6c(c5)CCO6)nc43)cc2c1` as the compound, how does the melting point read?
The melting point was 131 to 133 °C.

Which melting point does the source give for `Cc1nc(-c2cc([N+](=O)[O-])ccc2F)cs1` here?
The melting point was 160 to 162 °C.

Which melting point does the source give for `Cc1cccc(Cl)c1OC1CN(C(=O)Cl)C1` here?
The melting point was 67 to 69 °C.

For `CCCCC(=N)NC(=O)NC1CCCCC1`, which melting point is on record?
Its melting point is 146 to 148 °C.

Which melting point does the source give for `COC[C@H](O)CNc1ccc2cc(OCc3ccccc3)ccc2c1` here?
The melting point was 105 to 106 °C.

With `Cn1cnnc1C(O)(c1ccc(Cl)cc1)c1cc2c3c(c1)c(-c1cccc(Cl)c1)cc(=O)n3CCC2` (stereo not given) as the compound, how does the melting point read?
Its melting point is 183 °C.

For `COc1cc(-c2oc3ccccc3c(=O)c2C(=O)N2CCN(c3ccccn3)CC2)cc(OC)c1OC`, which melting point is on record?
Its melting point is 90 to 95 °C.

Which melting point does the source give for `Cc1nn(CCCl)c(-c2ccc(F)cc2)c1-c1ccc2c(c1)NC(=O)CO2` here?
Its melting point is 216 °C.

Which melting point does the source give for `Oc1ccc2c(-c3cc(F)ccc3F)noc2c1Cl` here?
Its melting point is 256 to 257 °C.

For `Cc1cccc(CO)c1CNc1cc(Br)cc2c1nc(C)n2C`, which melting point is on record?
Its melting point is 215 to 216 °C.

For `COc1ccc2c(-c3c(-c4ccccn4)nn4c3CCCCC4)ccnc2c1`, which melting point is on record?
Its melting point is 127 to 129 °C.

For `CCOC(=O)c1cn(-c2ccc(OC)cc2)[nH]c1=O`, which melting point is on record?
Its melting point is 125 to 127 °C.

With `COc1ccc(CSc2nc3cnccc3[nH]2)cc1C` as the compound, how does the melting point read?
The melting point was 158 to 159 °C.

With `CC(NC(=O)CCl)(c1ccccc1)c1ccccc1` as the compound, how does the melting point read?
The melting point was 73 to 74 °C.

Which melting point does the source give for `COc1cncc(OC)c1CCCOc1cccnc1Oc1cccc(Br)c1` here?
Its melting point is 106 to 154 °C.

Which melting point does the source give for `CCOC(CNC(=O)Nc1ccc(-n2cncn2)cc1)OCC` here?
Its melting point is 139 to 140 °C.

With `CCOC(=O)c1cc(SCc2ccccc2)c(Cl)c(S(N)(=O)=O)c1` as the compound, how does the melting point read?
Its melting point is 182 °C.

Which melting point does the source give for `O=c1[nH]c2ccccc2c2cc(CO)nn12` here?
Its melting point is 286 to 288 °C.

With `N#Cc1ccc(O[C@H]2CC[C@H](NC(=O)Nc3ccc(OC(F)(F)F)cc3)CC2)cc1` as the compound, how does the melting point read?
The melting point was 186 to 189 °C.

For `CCCCNC(=S)C(C)Oc1ccc2oc3cc(Cl)ccc3c2c1` (stereo not given), which melting point is on record?
Its melting point is 101 to 104 °C.

For `O=C(O)COc1ccccc1C(=O)NCc1ccc(Br)cc1F`, which melting point is on record?
Its melting point is 144 to 145 °C.

With `Cc1c(NC(=O)CC(C)(C)C)c(C)c2c(c1-c1ccc(F)nc1)OCC2c1ccc(C(C)C)cc1` (stereo not given) as the compound, how does the melting point read?
The melting point was 135 to 137 °C.

With `CCOC(CNC(=S)Nc1c(F)ccc2nc(C)ccc12)OCC` as the compound, how does the melting point read?
The melting point was 189 to 191 °C.

For `CC1(c2ccccc2)OC(C=Cc2cccnc2)=CC1=O` (stereo not given), which melting point is on record?
The melting point was 106 to 108 °C.

For `COc1ccc(C#CCCN2CCOC2=O)cc1OC`, which melting point is on record?
The melting point was 78 to 79 °C.

With `Cc1cc(Cl)c2[nH]ncc2n1` as the compound, how does the melting point read?
Its melting point is 218 °C.

For `N=C(O[C@@H]1CCCC=C1Cl)C(Cl)(Cl)Cl`, which melting point is on record?
Its melting point is 78 to 79 °C.

For `CCOC(=O)[C@@H]1OC(c2ccc3c(c2)OCO3)O[C@H]1C(=O)OCC`, which melting point is on record?
Its melting point is 39 to 40 °C.

For `COCc1cc(C(=O)NC(C)(C)C)c(C(=O)OC)cn1`, which melting point is on record?
Its melting point is 138 to 142 °C.

Which melting point does the source give for `COC(=S)NC[C@H]1CN(c2ccc(-c3nc(Cn4cccn4)cs3)c(F)c2)C(=O)O1` here?
The melting point was 157 to 158 °C.

For `O=C(O)CNc1ccc2ccccc2c1`, which melting point is on record?
Its melting point is 219 to 221 °C.

With `CC(=O)C1=C(O)C(=C(C)Nc2ccc(OC(N)=O)cc2)C(=O)OC1=O` as the compound, how does the melting point read?
The melting point was 213 to 215 °C.

With `Cn1nc2c(N)nc3c(c2c1CCC1CCCCC1)CCCC3` as the compound, how does the melting point read?
Its melting point is 230 to 231 °C.

For `CC(SC1COC(c2ccc(C(=O)Nc3ccc(Cl)cc3)cc2)OC1)C(O)(Cn1cncn1)c1ccc(F)cc1F` (stereo not given), which melting point is on record?
Its melting point is 210 °C.

With `N#CC1=C(C2CC2)Nc2n[nH]cc2C1c1cccc(N2CCOCC2)c1` (stereo not given) as the compound, how does the melting point read?
The melting point was > 260 °C.

For `O=C(Cl)N1CC(Oc2ccc(Br)cc2)C1`, which melting point is on record?
Its melting point is 77 to 78 °C.

Which melting point does the source give for `COc1ccc(NC(=O)c2ccc(F)c(F)c2)cc1NS(=O)(=O)c1ccc(C#N)cc1` here?
Its melting point is 255 to 257 °C.

Which melting point does the source give for `COc1cc(C#N)c(N=C(C)N(C)C)cc1OC` here?
Its melting point is 94 to 96 °C.

For `COc1ccc2ccc(N3C(=O)c4ccccc4C3OC(=O)CCC(C)C)nc2n1` (stereo not given), which melting point is on record?
The melting point was 133 °C.

Which melting point does the source give for `CC1(C)OC(c2ccccc2)CN1C(=O)C(Cl)Cl` (stereo not given) here?
Its melting point is 99.5 to 100 °C.

Which melting point does the source give for `CC1CC(c2c(S(C)(=O)=O)ccc(C(=O)O)c2Cl)=NO1` (stereo not given) here?
Its melting point is 173 to 178 °C.

For `CCOc1cc2c(cc1OC(C)=O)CCC1C2CCC2(C)C(OC(C)=O)CCC12` (stereo not given), which melting point is on record?
The melting point was 132 to 133 °C.

Which melting point does the source give for `CCC(CC)(COc1nn2ccnc2cc1C)CS(N)(=O)=O` here?
Its melting point is 210 to 211 °C.

For `O=c1ccc2cc(-c3cccnc3)ccc2[nH]1`, which melting point is on record?
The melting point was 217 to 218 °C.

Which melting point does the source give for `CC(=O)OCC1=CC(=O)C=C2CCC3C4CCC(=O)C4(C)CCC3C21C` (stereo not given) here?
Its melting point is 121 to 123 °C.

With `CC(CC(=O)c1ccccc1)C(=O)N1CCC[C@H]1C(=O)O` (stereo not given in full) as the compound, how does the melting point read?
Its melting point is 218 to 220 °C.

For `O=C1CC(/C=C/c2ccccc2)Nc2ccccc2N1Cc1ccccc1` (stereo not given), which melting point is on record?
Its melting point is 186 to 187 °C.

With `CCONC(=O)C(=O)NN` as the compound, how does the melting point read?
Its melting point is 182 °C.

Which melting point does the source give for `Cn1cnc(N2CCc3ccccc3CC2)c(C#N)c1=O` here?
The melting point was 197 to 203 °C.

Which melting point does the source give for `COc1ccc(NC(=O)C(Cl)Cl)cn1` here?
Its melting point is 104 to 107 °C.

Which melting point does the source give for `CCOC(=O)CN1C(=O)C(Br)CCc2ccccc21` (stereo not given) here?
The melting point was 114 to 116 °C.

Which melting point does the source give for `CCOC(=O)c1c(-c2ccccc2C)c2cc(C)c(Cl)cc2[nH]c1=O` here?
The melting point was 290 to 291 °C.

With `Cc1ccc(S(=O)(=O)Nc2c(C)c(C)c3c(c2C)CC(C)(C)O3)cc1` as the compound, how does the melting point read?
The melting point was 219 to 220 °C.

For `N#Cc1c(-c2ccccc2)c(-c2ccccc2)nn(CCC(=O)NCC(=O)O)c1=O`, which melting point is on record?
The melting point was 113 to 115 °C.

With `Cc1c(C(F)F)cc(-c2ccc(S(C)(=O)=O)cc2)n1-c1ccc(F)cc1` as the compound, how does the melting point read?
The melting point was 136 to 138 °C.

For `N#Cc1cc(C2=Nc3cc(O)c(-c4ccccc4F)cc3NC(=O)C2)ccn1`, which melting point is on record?
The melting point was > 250 °C.
